Data: ChEMBL document CHEMBL1156451 (J Biol Chem, 2007)
Values after ≈ are worked out from the molar mass of the structure shown. Active and inactive are the calls of the source. No cut-off for these calls is given here. Where a SMILES comes first, the peptide text is derived from it.

How the values were obtained:
Escherichia coli [1] = assay: Antibacterial activity against Escherichia coli K12 ATCC 23716 in 10% Luria-Bertani medium/90% Hepes buffer at pH 7.0; format: functional
Escherichia coli [2] = assay: Antibacterial activity against Escherichia coli ATCC 25922 after 24 hrs in Mueller-Hinton broth medium; format: functional; settings: ATCC 25922, 24 h
Brucella abortus [3] = assay: Antibacterial activity against Brucella abortus 9.49 (per-) after 48 hrs in Mueller-Hinton broth medium; format: functional
Brucella abortus [4] = assay: Antibacterial activity against Brucella abortus 9.19 (per-) after 24 hrs in Mueller-Hinton broth medium; format: functional
Pseudomonas aeruginosa = assay: Antibacterial activity against Pseudomonas aeruginosa CUN 4158-02 after 24 hrs in Mueller-Hinton broth medium; format: functional
HeLa = assay: Cytotoxicity against human HeLa cells at 100 ug/ml after 24 hrs by MTT assay relative to control; format: functional
Acinetobacter baumannii = assay: Antibacterial activity against Acinetobacter baumannii ATCC 19606 after 24 hrs in Mueller-Hinton broth medium; format: functional; settings: ATCC 19606, 24 h
Escherichia coli [5] = assay: Antibacterial activity against Escherichia coli K12 ATCC 23716 after 24 hrs in Mueller-Hinton broth medium; format: functional; settings: K12, 24 h
[6] = system: Bordetella bronchiseptica; assay: Antibacterial activity against Bordetella bronchiseptica CUN 11844-99 after 24 hrs in Mueller-Hinton broth medium; format: functional
Staphylococcus aureus = assay: Antibacterial activity against methicillin-resistant Staphylococcus aureus ATCC 43300 after 24 hrs in Mueller-Hinton broth medium; format: functional; settings: ATCC 43300, 24 h
[7] = Toxicity in human erythrocytes assessed as hemolysis at 100 ug/ml; format: cell-based, Erythrocyte; settings: read-out: Activity

Structure (SMILES)	MBC (Escherichia coli [1]) [µg/mL]	MIC (Escherichia coli [1]) [µg/mL]	MBC (Escherichia coli [2]) [µg/mL]	MIC (Escherichia coli [2]) [µg/mL]	MIC (Brucella abortus [3]) [µg/mL]	MBC (Brucella abortus [4]) [µg/mL]	MBC (Pseudomonas aeruginosa) [µg/mL]	MIC (Pseudomonas aeruginosa) [µg/mL]	Activity (HeLa)	MBC (Acinetobacter baumannii) [µg/mL]	MIC (Acinetobacter baumannii) [µg/mL]	MBC (Escherichia coli [5]) [µg/mL]	MIC (Escherichia coli [5]) [µg/mL]	MBC [6] [µg/mL]	MIC [6] [µg/mL]	MBC (Staphylococcus aureus) [µg/mL]	MIC (Staphylococcus aureus) [µg/mL]	hemolysis at 100 ug/ml [7] [%]
CC[C@H](C)[C@H](NC(=O)[C@H](CCCNC(=N)N)NC(=O)[C@H](CCCCN)NC(=O)[C@H](CO)NC(=O)[C@@H](NC(=O)CNC(=O)[C@H](CC(C)C)NC(=O)[C@@H](NC(=O)[C@@H](N)CCCCN)[C@@H](C)CC)C(C)C)C(=O)N[C@@H](CC(C)C)C(=O)N[C@H](C(=O)NCC(=O)N[C@@H](CCCCN)C(=O)N[C@@H](CCCCN)C(N)=O)[C@@H](C)O (H-KILGVSKRILTGKK-NH2)	> 100	50 (≈ 32.5 µM)	> 256	> 256	> 128	> 12.8	> 256	> 256	inactive	> 256	> 256	> 256	256 (≈ 166 µM)	> 256	256 (≈ 166 µM)	> 256	> 256	< 5
CC[C@H](C)[C@H](NC(=O)[C@H](CCCNC(=N)N)NC(=O)[C@H](CCCNC(=N)N)NC(=O)[C@H](CC(C)C)NC(=O)[C@H](Cc1ccccc1)NC(=O)[C@@H](NC(=O)[C@H](CCCNC(=N)N)NC(=O)[C@H](CCSC)NC(=O)[C@@H](NC(=O)[C@H](CCCCN)NC(=O)[C@@H](N)CCCCN)[C@@H](C)CC)[C@@H](C)O)C(=O)N[C@@H](CO)C(=O)N[C@@H](CCCCN)C(=O)N[C@@H](CCCCN)C(=O)N[C@H](C(=O)N[C@@H](CC(C)C)C(=O)N[C@H](C(=O)NCC(=O)N[C@@H](CCCCN)C(=O)N[C@@H](CCCCN)C(N)=O)[C@@H](C)O)[C@@H](C)CC (H-KKIMRTFLRRISKKILTGKK-NH2)	32 (≈ 13.1 µM)	16 (≈ 6.54 µM)	64 (≈ 26.2 µM)	32 (≈ 13.1 µM)	4 (≈ 1.64 µM)	32 (≈ 13.1 µM)	128 (≈ 52.3 µM)	32 (≈ 13.1 µM)	inactive	8 (≈ 3.27 µM)	8 (≈ 3.27 µM)	32 (≈ 13.1 µM)	16 (≈ 6.54 µM)	16 (≈ 6.54 µM)	2 (≈ 0.818 µM)	256 (≈ 105 µM)	128 (≈ 52.3 µM)	< 5
CC[C@H](C)[C@H](NC(=O)[C@H](CCCNC(=N)N)NC(=O)[C@H](CCCNC(=N)N)NC(=O)[C@H](CC(C)C)NC(=O)[C@H](Cc1ccccc1)NC(=O)[C@@H](NC(=O)[C@H](CCCNC(=N)N)NC(=O)[C@H](CCSC)NC(=O)[C@@H](NC(=O)[C@H](CCCCN)NC(=O)[C@@H](N)CCCCN)[C@@H](C)CC)[C@@H](C)O)C(=O)N[C@@H](CO)C(=O)N[C@@H](CCCCN)C(=O)N[C@@H](CC(=O)O)C(=O)N[C@H](C(=O)N[C@@H](CC(C)C)C(=O)N[C@H](C(=O)NCC(=O)N[C@@H](CCCCN)C(=O)N[C@@H](CCCCN)C(N)=O)[C@@H](C)O)[C@@H](C)CC (H-KKIMRTFLRRISKDILTGKK-NH2)	32 (≈ 13.2 µM)	32 (≈ 13.2 µM)	64 (≈ 26.3 µM)	16 (≈ 6.58 µM)	16 (≈ 6.58 µM)	> 256	128 (≈ 52.6 µM)	128 (≈ 52.6 µM)	inactive	64 (≈ 26.3 µM)	8 (≈ 3.29 µM)	32 (≈ 13.2 µM)	32 (≈ 13.2 µM)	8 (≈ 3.29 µM)	4 (≈ 1.64 µM)	> 256	> 256	< 5
CC[C@H](C)[C@H](NC(=O)[C@H](CCCNC(=N)N)NC(=O)[C@H](CCCCN)NC(=O)[C@H](CO)NC(=O)[C@@H](NC(=O)[C@@H](N)CCCCN)[C@@H](C)CC)C(=O)N[C@@H](CC(C)C)C(=O)N[C@H](C(=O)NCC(=O)N[C@@H](CCCCN)C(=O)N[C@@H](CCCCN)C(=O)O)[C@@H](C)O (H-KISKRILTGKK-OH)	> 200	200 (≈ 157 µM)	> 256	> 256	> 256	> 256	> 256	> 256	inactive	> 256	> 256	> 256	> 256	> 256	> 256	> 256	> 256	< 5
